For one experiment, the target named is BRD4 protein (Homo sapiens (Human), UniProt O60885). Kind of experiment: BRD4 protein degradation inducing action in LNCaP cells (immunofluorescence, 6 hr). Type of experiment: cell-based. Conditions: anti-BRD4 fluorescence intensity. In a few lines:
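Read-out is BRD4 immunofluorescence intensity (560/572 nm) after 6 hr compound treatment of LNCaP cells in 10% FBS/RPMI1640, with fixation, permeabilization and anti-BRD4 staining. Linear interpolation between the two concentrations flanking 50% of untreated intensity gives DC50.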

Experiment [1] concerns human prostate cancer LNCaP cells. Nature of the experiment: Cytotoxic action on LNCaP cells (WST-8, 96 hr). Type of experiment: cell-based. The settings on record: 96 hr culture. A digest of the protocol: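 Cells in 10% FBS/RPMI1640 plated overnight at 37° C, 5% CO2, then exposed to compound (DMSO stock diluted in medium) for 96 hr. Viable cells measured by WST-8. IC50 = concentration giving 50% survival versus untreated, interpolated linearly between the two bracketing points.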
For orientation: Tetrazolium dyes change colour on reduction, which living cells bring about.

Structures are written as SMILES.

Regarding `CCc1ccc(NS(=O)(=O)c2ccc(CNC(=O)c3ccc(-c4ccc(C5=N[C@@H](CC(=O)OC)c6nnc(C)n6-c6sc(C)c(C)c65)cc4)cn3)cc2)c2[nH]cc(C#N)c12` [Example 108, methyl [(6S)-4-(4-{6-[({4-[(3-cyano-4-ethyl-1H-indol-7-yl)sulfamoyl]phenyl}methyl)carbamoyl]pyridin-3-yl}phenyl)-2,3,9-trimethyl-6H-thieno[3,2-f][1,2,4]triazolo[4,3-a][1,4]diazepin-6-yl]acetate], it took 0.069 nM to reach half-maximal degradation at BRD4 protein (DC50). Besides, in experiment [1], the IC50 (in general, the concentration that gives 50% inhibition) worked out at 0.23 nM.
Take `CCc1ccc(NS(=O)(=O)c2ccc(CNC(=O)c3ccc(-c4ccc(C5=N[C@@H](CC(=O)OC)c6nnc(C)n6-c6sc(C)c(C)c65)cc4)c(F)c3)cc2)c2[nH]cc(C#N)c12` [Example Compound 115, methyl [(6S)-4-{4′-[({4-[(3-cyano-4-ethyl-1H-indol-7-yl)sulfamoyl]phenyl}methyl)carbamoyl]-2′-fluoro[1,1′-biphenyl]-4-yl}-2,3,9-trimethyl-6H-thieno[3,2-f][1,2,4]triazolo[4,3-a][1,4]diazepin-6-yl]acetate]: half-maximal degradation on BRD4 protein (DC50) was put at 0.13 nM. The compound further displayed an IC50 in experiment [1] of 0.32 nM.
In the case of `COC(=O)C[C@@H]1N=C(c2ccc(-c3ccc(C(=O)NCCc4ccc(S(=O)(=O)Nc5ccc(C)c6c(C#N)c[nH]c56)cc4)c(Cl)c3)cc2)c2c(sc(C)c2C)-n2c(C)nnc21` [Example 41, methyl [(6S)-4-{3′-chloro-4′-[(2-{4-[(3-cyano-4-methyl-1H-indol-7-yl)sulfamoyl]phenyl}ethyl)carbamoyl][1,1′-biphenyl]-4-yl}-2,3,9-trimethyl-6H-thieno[3,2-f][1,2,4]triazolo[4,3-a][1,4]diazepin-6-yl]acetate], on BRD4 protein, half-maximal degradation (DC50) was put at 0.41 nM. For the same compound, in experiment [1], the midpoint of inhibition, the IC50, lay at 1.1 nM.
Turning to `COC(=O)C[C@@H]1N=C(c2ccc(-c3cc(F)c(C(=O)NCc4ccc(S(=O)(=O)Nc5ccc(C)c6c(C#N)c[nH]c56)cc4)cc3F)cc2)c2c(sc(C)c2C)-n2c(C)nnc21` [Example 82, methyl [(6S)-4-{4′-[({4-[(3-cyano-4-methyl-1H-indol-7-yl)sulfamoyl]phenyl}methyl)carbamoyl]-2′,5′-difluoro[1,1′-biphenyl]-4-yl}-2,3,9-trimethyl-6H-thieno[3,2-f][1,2,4]triazolo[4,3-a][1,4]diazepin-6-yl]acetate], the 50% degradation concentration (DC50) (as a rule, the midpoint of the concentration-degradation curve) at BRD4 protein was 0.25 nM. Besides, the half-maximal inhibitory concentration (IC50) in experiment [1] worked out at 0.27 nM.
The matching figures for `COC(=O)C[C@@H]1N=C(c2ccc(N3CC[C@@H](C(=O)NCc4ccc(S(=O)(=O)Nc5ccc(C)c6c(C#N)c[nH]c56)cc4)C3)cc2)c2c(sc(C)c2C)-n2c(C)nnc21` [Example 4, methyl [(6S)-4-(4-{(3R)-3-[({4-[(3-cyano-4-methyl-1H-indol-7-yl)sulfamoyl]phenyl}methyl)carbamoyl]pyrrolidin-1-yl}phenyl)-2,3,9-trimethyl-6H-thieno[3,2-f][1,2,4]triazolo[4,3-a][1,4]diazepin-6-yl]acetate]: 38 nM and 16 nM.
`Cc1sc2c(c1C)C(c1ccc(-c3ccc(C(=O)NCc4ccc(S(=O)(=O)Nc5ccc(C)c6c(C#N)c[nH]c56)cc4)nc3)cc1)=N[C@@H](CC(=O)OC(C)(C)C)c1nnc(C)n1-2` [Example Compound 145, t-butyl [(6S)-4-(4-{6-[({4-[(3-cyano-4-methyl-1H-indol-7-yl)sulfamoyl]phenyl}methyl)carbamoyl]pyridin-3-yl}phenyl)-2,3,9-trimethyl-6H-thieno[3,2-f][1,2,4]triazolo[4,3-a][1,4]diazepin-6-yl]acetate] displayed a half-maximal degradation concentration (DC50) at BRD4 protein of 0.17 nM. The compound also gave a 50% inhibitory concentration (IC50) in experiment [1] of 0.44 nM.
As to `COC(=O)C[C@@H]1N=C(c2ccc(-c3ccc4oc(C(=O)NCc5ccc(S(=O)(=O)Nc6ccc(C)c7c(C#N)c[nH]c67)cc5)cc4c3)cc2)c2c(sc(C)c2C)-n2c(C)nnc21` [Example 35, methyl [(6S)-4-(4-{2-[({4-[(3-cyano-4-methyl-1H-indol-7-yl)sulfamoyl]phenyl}methyl)carbamoyl]-1-benzofuran-5-yl}phenyl)-2,3,9-trimethyl-6H-thieno[3,2-f][1,2,4]triazolo[4,3-a][1,4]diazepin-6-yl]acetate], at BRD4 protein, it took 2.7 nM to reach half-maximal degradation (DC50). This compound yielded an IC50 in experiment [1] of 7.2 nM.
As to `COC(=O)C[C@@H]1N=C(c2ccc(C#CC(=O)NCc3ccc(S(=O)(=O)Nc4ccc(C)c5c(C#N)c[nH]c45)cc3)cc2)c2c(sc(C)c2C)-n2c(C)nnc21` [Example 5, methyl [(6S)-4-(4-{3-[({4-[(3-cyano-4-methyl-1H-indol-7-yl)sulfamoyl]phenyl}methyl)amino]-3-oxoprop-1-yn-1-yl}phenyl)-2,3,9-trimethyl-6H-thieno[3,2-f][1,2,4]triazolo[4,3-a][1,4]diazepin-6-yl]acetate], the 50% degradation concentration (DC50) at BRD4 protein was 15 nM. The compound further gave an IC50 in experiment [1] of 4.1 nM.
For the compound `COC(=O)C[C@@H]1N=C(c2ccc(-c3ccc(C(=O)NCc4ccc(S(=O)(=O)Nc5ccc(C)c6c(C#N)c[nH]c56)cc4)c(F)c3)cc2)c2c(sc(C)c2C)-n2c(C)nnc21` [Example 2, methyl [(6S)-4-{4′-[({4-[(3-cyano-4-methyl-1H-indol-7-yl)sulfamoyl]phenyl}methyl)carbamoyl]-3′-fluoro[1,1′-biphenyl]-4-yl}-2,3,9-trimethyl-6H-thieno[3,2-f][1,2,4]triazolo[4,3-a][1,4]diazepin-6-yl]acetate], the DC50 at BRD4 protein was determined as 0.23 nM. 0.35 nM corresponded to half-maximal inhibition in experiment [1] (IC50).
In turn, `CCc1ccc(NS(=O)(=O)c2ccc([C@@H](C)NC(=O)c3ccc(-c4ccc(C5=N[C@@H](CC(=O)OC)c6nnc(C)n6-c6sc(C)c(C)c65)cc4)cc3)cc2)c2[nH]cc(C#N)c12` [Example Compound 127, methyl [(6S)-4-(4′-{[(1R)-1-{4-[(3-cyano-4-ethyl-1H-indol-7-yl)sulfamoyl]phenyl}ethyl]carbamoyl}[1,1′-biphenyl]-4-yl)-2,3,9-trimethyl-6H-thieno[3,2-f][1,2,4]triazolo[4,3-a][1,4]diazepin-6-yl]acetate] registered a DC50 on BRD4 protein of 0.024 nM. Moreover, inhibition in experiment [1] was half-maximal at 0.032 nM (IC50).
With `COC(=O)C[C@@H]1N=C(c2ccc(-c3cnc(C(=O)NCc4ccc(S(=O)(=O)Nc5ccc(C)c6c(C#N)c[nH]c56)cc4)cc3C)cc2)c2c(sc(C)c2C)-n2c(C)nnc21` [Example 101, methyl [(6S)-4-(4-{6-[({4-[(3-cyano-4-methyl-1H-indol-7-yl)sulfamoyl]phenyl}methyl)carbamoyl]-4-methylpyridin-3-yl}phenyl)-2,3,9-trimethyl-6H-thieno[3,2-f][1,2,4]triazolo[4,3-a][1,4]diazepin-6-yl]acetate], the DC50 at BRD4 protein came out at 0.15 nM. For the same compound, the IC50 in experiment [1] turned out to be 0.27 nM.
The matching figures for `COC(=O)C[C@@H]1N=C(c2ccc(-c3ccc(C(=O)N[C@H](C)c4ccc(S(=O)(=O)Nc5ccc(C)c6c(C#N)c[nH]c56)cc4)c(F)c3F)cc2)c2c(sc(C)c2C)-n2c(C)nnc21` [Example 99, methyl [(6S)-4-(4′-{[(1R)-1-{4-[(3-cyano-4-methyl-1H-indol-7-yl)sulfamoyl]phenyl}ethyl]carbamoyl}-2′,3′-difluoro[1,1′-biphenyl]-4-yl)-2,3,9-trimethyl-6H-thieno[3,2-f][1,2,4]triazolo[4,3-a][1,4]diazepin-6-yl]acetate]: 0.091 nM and 0.14 nM.
